The values below come from patent US10548861B2 (Academia Sinica, priority 2015, dated 2020).

Read-outs that look alike come from different tables or passages of the source.

The test system of data set [1] is MA-10-W51 CB MLL-AF9 + Flt3ITD. The data set is described as follows: Cytotoxicity: AML HSC-derived. The class given is cell-based, human. To be noted: growth factor dependent MA-10-W51, FIG. 9. The text has this:
• a) Growth factor-dependent & cell density growth dependent cell lines. Human cord blood CD34+ cells transduced with MLL-AF9 gene: MA-10, MA-18. Human bone marrow CD34+ cells transduced with MLL-AF9 gene: MA-23. Human cord blood CD34+ cells transduced with MLL-AF9 and N-ras genes: MA-9.3, MA-9.6. • b) Growth factor independent leukemic cell lines. Human MA-10 cells transduced with Flt3 ITD (W51) were adapted to in vitro proliferation without growth factors (Moore Laboratory).

Data set [2] deals with normal human, murine or primate cell and tissue types. The data set is described as follows: MTT / alamar blue cytotoxicity on panel of normal tissues. The format is cell-based. To be noted: read-out: IC50 range.
The subject of data set [3] is MV4;11 AML cell line vs normal human tissues. The class given is cell-based.
In data set [4] the test system is primary AML (AML-2) vs normal human tissues. The format is cell-based.
Data set [5] concerns primary B-ALL vs normal human tissues. The format is cell-based.
Data set [6] deals with H526 variant SCLC cell line vs normal human tissues. The class given is cell-based.
Another data set has as its system BCI-NSI hTERT. The data set is described as follows: 72 hr cytotoxicity: Bronchial epithelium. The format is cell-based. The settings on record: Homo sapiens, 72 h.
A further data set concerns FTE-hTERT. Put plainly: 72 hr cytotoxicity: Fallopian epithelium. The class given is cell-based. The settings on record: Homo sapiens, 72 h.
The subject of another data set is BMMSC. The data set is described as follows: 72 hr cytotoxicity: BM Mesenchyme. The class given is cell-based. The settings on record: Homo sapiens, 72 h.
A further data set has as its system H82. Put plainly: 72 hr cytotoxicity: SCLC variant. The format is cell-based. The settings on record: Homo sapiens, NCI-H82.
Another data set deals with H524. Put plainly: 72 hr cytotoxicity: SCLC variant. The class given is cell-based. To be noted: Homo sapiens, NCI-H524.
The test system of the next data set is H146. The data set is described as follows: 72 hr cytotoxicity: SCLC classic. To be noted: Homo sapiens, NCI-H146. The class given is cell-based.
In the next data set the test system is H187. Put plainly: 72 hr cytotoxicity: SCLC classic. To be noted: Homo sapiens, NCI-H187. The format is cell-based.
The subject of another data set is H209. Put plainly: 72 hr cytotoxicity: SCLC classic. The format is cell-based. The settings on record: Homo sapiens, NCI-H209.
The test system of the next data set is H249. The data set is described as follows: 72 hr cytotoxicity: SCLC classic. The settings on record: Homo sapiens. The class given is cell-based.
The test system of the next data set is H417. Put plainly: 72 hr cytotoxicity: SCLC variant. The class given is cell-based. To be noted: Homo sapiens, NCI-H417.
Another data set has as its system H526. Put plainly: 72 hr cytotoxicity: SCLC variant. The class given is cell-based. To be noted: Homo sapiens, NCI-H526.
In a further data set the test system is H562. Put plainly: 72 hr cytotoxicity: SCLC classic. The class given is cell-based. To be noted: Homo sapiens.
Another data set has as its system H60. Put plainly: 72 hr cytotoxicity: SCLC classic. The format is cell-based. The settings on record: Homo sapiens.
The next data set relates to H69. Put plainly: 72 hr cytotoxicity: SCLC classic. The class given is cell-based. To be noted: Homo sapiens, NCI-H69.
The subject of another data set is H678. Put plainly: 72 hr cytotoxicity: SCLC classic. The settings on record: Homo sapiens. The class given is cell-based.
Another data set deals with H719. Put plainly: 72 hr cytotoxicity: SCLC classic. The format is cell-based. To be noted: Homo sapiens.
The test system of another data set is H841. The data set is described as follows: 72 hr cytotoxicity: SCLC variant. The class given is cell-based. To be noted: Homo sapiens, NCI-H841.
For another data set, the system named is H889. Put plainly: 72 hr cytotoxicity: SCLC classic. The format is cell-based. The settings on record: Homo sapiens, NCI-H889.
For data set [7], the system named is normal cord blood CD34+ cells. The data set is described as follows: Cytotoxicity on normal cord blood CD34+ cells. The class given is cell-based. To be noted: Homo sapiens, 72 h.
In a further data set the test system is HBL2. Put plainly: Cytotoxicity: Mantle Cell Lymphoma. To be noted: Homo sapiens, HBL2.
For a further data set, the system named is REC-1. The data set is described as follows: Cytotoxicity: Mantle Cell Lymphoma. The settings on record: Homo sapiens, Rec1.

`CCc1c(CO)c(CO)c2n1Cc1c(c3ccccc3n1C)C2` [BO-1978]: the “cytotoxicity (in words)” value in [1] was “highly cytotoxic, with BO-1978 more so than BO-1055”.
On to `N.N.[Cl][Pt][Cl]` [Cisplatin], for which the IC50 in [2] fell in the range of 3600 to 4100 nM. The Therapeutic window turned out to be 0.75 in data set [3] (CD34+ relative to MV4;11); 6.25 in data set [3] (HUVEC relative to MV4;11); 3.75 in data set [3] (NSI (Bci-NSI) relative to MV4;11); 2.50 in data set [3] (huMSC relative to MV4;11); 0.50 in data set [4] (Bci- (NSI) relative to AML-2); 0.10 in [4] (CD34+ relative to AML-2). Also, the Therapeutic window in data set [4] (FTEC relative to AML-2) is listed as 1.67; in data set [4] (HUVEC relative to AML-2), 0.83; in data set [4] (huMSC relative to AML-2), 0.33; in data set [5] (Bci- (NSI) relative to B-ALL), 0.50; in data set [5] (CD34+ relative to B-ALL), 0.10; in data set [5] (FTEC relative to B-ALL) it was 20.00. Also, the Therapeutic window in [5] (HUVEC relative to B-ALL) amounted to 0.83; in data set [5] (huMSC relative to B-ALL) it was 0.33. In addition, the “therapeutic window (TW)” value is 83.33 in [6] (Bci- (NSI), normalized to 1.00 for H526); 33.33 in [6] (CD34+, normalized to 1.00 for H526); 1041.7 in [6] (FTEC, normalized to 1.00 for H526); 1.00 in data set [6] (H526 (reference)); 58.33 in data set [6] (HUVEC, normalized to 1.00 for H526); 75.00 in data set [6] (huMSC, normalized to 1.00 for H526).
`COc1cc([C@@H]2c3cc4c(cc3[C@@H](O[C@@H]3O[C@@H]5CO[C@@H](C)O[C@H]5[C@H](O)[C@H]3O)[C@H]3COC(=O)[C@H]23)OCO4)cc(OC)c1O` [Etoposide]: the IC50 with BCI-NSI hTERT amounted to 500 nM; with FTE-hTERT, 200000 nM; in the data set on BMMSC, 70200 nM; in the data set with H82 it was 9700 nM; with H524 it was 1400 nM; in the data set with H146, 2900 nM. The IC50 in the data set on H187 stood at 600 nM; with H209, 500 nM; with H249 it was 4100 nM; in the data set on H417 it was 3700 nM; with H526, 800 nM; in the data set with H562, 5500 nM. Also, the IC50 is at least 20000 nM in the data set on H60; 400 nM in the data set with H69; 310 nM with H678; at least 10000 nM in the data set with H719; 600 nM in the data set with H841; 1400 nM in the data set on H889. The compound further yielded an IC50 in data set [7] of 90 nM.
On to `CC(=O)O[C@H]1C(=O)[C@@]2(C)[C@H]([C@H](OC(=O)c3ccccc3)[C@]3(O)C[C@H](OC(=O)[C@H](O)[C@@H](NC(=O)c4ccccc4)c4ccccc4)C(C)=C1C3(C)C)[C@]1(OC(C)=O)CO[C@@H]1C[C@@H]2O` [Paclitaxel], for which the values for the IC50 in the data set with HBL2 and in the data set with REC-1 were 16 nM and 21 nM, respectively.
For `Cc1[nH]c2ccccc2c1CCNCc1ccc(/C=C/C(=O)NO)cc1` [Panobinostat], the IC50 in the data set on HBL2 is 13 nM; in the data set with REC-1 it was 60 nM.
